± gives the expanded uncertainty stated by the source.
Experiments:
[1] = 298 K; 101.33 kPa; Liquid; Vibrating tube method
[2] = refractive index (Na D-line) (dimensionless); details: 293 K; 101.33 kPa; Liquid; Standard Abbe refractometry

FC(F)(F)C(F)(F)C(F)(F)C(F)(F)C(F)(F)C(F)(F)C(F)(F)C(F)(F)F [octadecafluorooctane]
mass density [1]: 1756 ± 1 kg/m3
refractive index [2]: 1.268 ± 0.001

Source: the NIST ThermoML archive (doi:10.1021/acs.jced.7b00657)
